What follows are molecules tested against T1, CFTR-mediated short-circuit current in F508del/MF-HBE cells (Homo sapiens, UniProt P13569, DEL508-508) (assay: HBE2 assay: Ussing chamber assay of CFTR-mediated short-circuit currents).
T1 construct: human bronchial epithelial (HBE) cells derived from CF subjects; endogenous in cells; host or cells: primary human bronchial epithelial cells from CF subjects (F508del/MF-HBE)
Type: cell-based
Experimental: 1. Ussing Chamber Assay of CFTR-Mediated Short-Circuit Currents
Ussing chamber experiments were performed using human bronchial epithelial (HBE) cells derived from CF subjects heterozygous for F508del and a minimal function CFTR mutation (F508del/MF-HBE) and cultured as previously described (Neuberger T, Burton B, Clark H, Van Goor F Methods Mol Biol 2011:741:39-54). After four days the apical media was removed, and the cells were grown at an air liquid interface for >14 days prior to use.
To isolate the CFTR-mediated short-circuit (ISC) current, F508del/MF-HBE grown on Costar® Snapwell™ cell culture inserts were mounted in an Ussing chamber and the transepithelial ISC was measured under voltage-clamp recording conditions (Vhold=0 mV) at 37° C. The basolateral solution contained (in mM) 145 NaCl, 0.83 K2HPO4, 3.3 KH2PO4, 1.2 MgCl2, 1.2 CaCl2, 10 Glucose, 10 HEPES (pH adjusted to 7.4 with NaOH) and the apical solution contained (in mM) 145 NaGluconate, 1.2 MgCl2, 1.2 CaCl2, 10 glucose, 10 HEPES (pH adjusted to 7.4 with NaOH) and 30 μM amiloride to block the epithelial sodium channel. Forskolin (20 μM) was added to the apical surface to activate CFTR, followed by apical addition of a CFTR inhibitor cocktail consisting of BPO, GlyH-101, and CFTR inhibitor 172 (each at 20 μM final assay concentration) to specifically isolate CFTR currents. The CFTR-mediated ISC (μA/cm^2) for each condition was determined from the peak forskolin response to the steady-state current following inhibition.
2. Identification of Corrector Compounds
The activity of the CFTR corrector compounds on the CFTR-mediated ISC was determined in Ussing chamber studies as described above. The F508del/MF-HBE cell cultures were either incubated with the corrector compounds at a range of concentrations in combination with 44 nM (6R,12R)-17-amino-12-methyl-6,15-bis(trifluoromethyl)-13,19-dioxa-3,4,18-triazatricyclo[12.3.1.12,5]nonadeca-1(18),2,4,14,16-pentaen-6-ol or were incubated with the corrector compounds at a single fixed concentration of 1 and 3 μM in combination with 44 nM (6R,12R)-17-amino-12-methyl-6,15-bis(trifluoromethyl)-13,19-dioxa-3,4,18-triazatricyclo[12.3.1.12,5]nonadeca-1(18),2,4,14,16-pentaen-6-ol for 18-24 hours at 37° C. and in the presence of […]. The concentration of corrector compounds with 44 nM (6R,12R)-17-amino-12-methyl-6,15-bis(trifluoromethyl)-13,19-dioxa-3,4,18-triazatricyclo[12.3.1.12,5]nonadeca-1(18),2,4,14,16-pentaen-6-ol during the 18-24 hours incubations was kept constant throughout the Ussing chamber measurement of the CFTR-mediated ISC to ensure compounds were present throughout the entire experiment.

T1 sequence (P13569 with tags, fused parts or gaps DEL508-508): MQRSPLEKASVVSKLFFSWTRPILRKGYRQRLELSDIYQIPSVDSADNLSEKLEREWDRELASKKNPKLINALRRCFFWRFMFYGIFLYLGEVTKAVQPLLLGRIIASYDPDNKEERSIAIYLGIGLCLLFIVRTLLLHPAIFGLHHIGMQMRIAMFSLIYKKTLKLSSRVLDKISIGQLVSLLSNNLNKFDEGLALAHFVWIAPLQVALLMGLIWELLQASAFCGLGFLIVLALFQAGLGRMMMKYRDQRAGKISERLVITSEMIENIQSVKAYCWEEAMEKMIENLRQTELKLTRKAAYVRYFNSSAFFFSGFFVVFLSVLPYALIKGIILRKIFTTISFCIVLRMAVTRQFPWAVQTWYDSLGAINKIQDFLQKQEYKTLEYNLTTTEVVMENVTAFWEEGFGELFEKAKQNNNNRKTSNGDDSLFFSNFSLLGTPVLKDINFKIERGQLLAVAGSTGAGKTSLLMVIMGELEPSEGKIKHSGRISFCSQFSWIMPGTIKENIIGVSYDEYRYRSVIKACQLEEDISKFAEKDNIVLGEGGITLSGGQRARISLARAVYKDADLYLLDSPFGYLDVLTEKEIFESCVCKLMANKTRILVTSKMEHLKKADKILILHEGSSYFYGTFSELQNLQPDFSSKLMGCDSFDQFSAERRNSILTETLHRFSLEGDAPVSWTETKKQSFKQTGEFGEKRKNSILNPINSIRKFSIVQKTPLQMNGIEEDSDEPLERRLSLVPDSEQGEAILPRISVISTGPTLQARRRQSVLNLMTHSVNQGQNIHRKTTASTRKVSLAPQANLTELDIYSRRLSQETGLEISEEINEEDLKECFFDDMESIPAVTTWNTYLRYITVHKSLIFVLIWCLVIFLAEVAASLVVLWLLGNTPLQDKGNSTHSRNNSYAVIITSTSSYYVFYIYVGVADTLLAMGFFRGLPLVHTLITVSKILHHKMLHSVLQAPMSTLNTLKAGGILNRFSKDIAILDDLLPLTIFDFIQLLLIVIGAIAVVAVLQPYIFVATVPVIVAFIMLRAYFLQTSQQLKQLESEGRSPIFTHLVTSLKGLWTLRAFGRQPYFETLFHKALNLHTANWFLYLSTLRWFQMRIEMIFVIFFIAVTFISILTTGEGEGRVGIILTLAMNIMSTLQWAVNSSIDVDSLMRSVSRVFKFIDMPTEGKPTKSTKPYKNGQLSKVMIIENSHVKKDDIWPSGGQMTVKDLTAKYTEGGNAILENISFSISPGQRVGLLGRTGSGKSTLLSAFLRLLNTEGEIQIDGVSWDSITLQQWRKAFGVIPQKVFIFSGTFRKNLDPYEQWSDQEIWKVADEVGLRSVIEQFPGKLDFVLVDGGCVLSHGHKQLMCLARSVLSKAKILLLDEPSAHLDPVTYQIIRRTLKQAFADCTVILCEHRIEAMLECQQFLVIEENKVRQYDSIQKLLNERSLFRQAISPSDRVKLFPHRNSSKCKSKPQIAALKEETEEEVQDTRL

| Structure (SMILES) | HBE2 Activity at 3 μM (%) |
| --- | --- |
| Cc1cccc(C)c1-c1cc2nc(n1)NS(=O)(=O)c1cccc(c1)C(=O)N1[C@@H](c3ncc(OC(C)C)cn3)CCC(C)(C)[C@H]1CO2 (single isomer, unassigned) [Compound 386, 13-(2,6-dimethylphenyl)-4-(5-isopropoxypyrimidin-2-yl)-7,7-dimethyl-17,17-dioxo-10-oxa-17λ^6-thia-3,14,16,23-tetrazatetracyclo[16.3.1.111,15.03,8]tricosa-1(21),11,13,15(23),18(22),19-hexaen-2-one] | + (+ is <30+) |
| Cc1cccc(C)c1-c1cc2nc(n1)NS(=O)(=O)c1cccc(c1)C(=O)N1[C@@H](c3ncc(OC(C)C)cn3)CCC(C)(C)[C@H]1CO2 (single isomer, unassigned) [Compound 387, 13-(2,6-Dimethylphenyl)-4-(5-isopropoxypyrimidin-2-yl)-7,7-dimethyl-17,17-dioxo-10-oxa-17λ^6-thia-3,14,16,23-tetrazatetracyclo[16.3.1.111,15.03,8]tricosa-1(21),11,13,15(23),18(22),19-hexaen-2-one] | +++ (+++ is >60%) |
| Cc1cccc(C)c1-c1cc2nc(n1)NS(=O)(=O)c1cccc(c1)C(=O)N1[C@@H](c3ncc(OC(C)C)cn3)CCC[C@@H](CC(C)C)[C@H]1CO2 (single isomer, unassigned) [Compound 394, 14-(2,6-Dimethylphenyl)-8-isobutyl-4-(5-isopropoxypyrimidin-2-yl)-18,18-dioxo-11-oxa-18λ^6-thia-3,15,17,24-tetrazatetracyclo[17.3.1.112,16.03,9]tetracosa-1(22),12,14,16(24),19(23),20-hexaen-2-one] | +++ (+++ is >60%) |
| Cc1cccc(C)c1-c1cc2nc(n1)NS(=O)(=O)c1cccc(c1)C(=O)N1[C@@H](c3ncc(OC(C)C)cn3)CCC[C@@H](CC(C)C)[C@H]1CO2 (single isomer, unassigned) [Compound 395, 14-(2,6-dimethylphenyl)-8-isobutyl-4-(5-isopropoxypyrimidin-2-yl)-18,18-dioxo-11-oxa-18λ^6-thia-3,15,17,24-tetrazatetracyclo[17.3.1.112,16.03,9]tetracosa-1(22),12,14,16(24),19(23),20-hexaen-2-one] | ++ (++ is 30-60%) |
| Cc1cccc(C)c1-c1cc2nc(n1)NS(=O)(=O)c1cccc(c1)C(=O)N1[C@@H](c3ncc(OC(C)C)cn3)CCC[C@@H](CC(C)C)[C@H]1CO2 (single isomer, unassigned) [Compound 396, 14-(2,6-Dimethylphenyl)-8-isobutyl-4-(5-isopropoxypyrimidin-2-yl)-18,18-dioxo-11-oxa-18λ^6-thia-3,15,17,24-tetrazatetracyclo[17.3.1.112,16.03,9]tetracosa-1(22),12,14,16(24),19(23),20-hexaen-2-one] | + (+ is <30+) |
| Cc1cccc(C)c1-c1cc2nc(n1)NS(=O)(=O)c1cccc(c1)C(=O)N1[C@@H](c3ncc(OC(C)C)cn3)CCC[C@@H](CC(C)C)[C@H]1CO2 (single isomer, unassigned) [Compound 397, 14-(2,6-dimethylphenyl)-8-isobutyl-4-(5-isopropoxypyrimidin-2-yl)-18,18-dioxo-11-oxa-18λ^6-thia-3,15,17,24-tetrazatetracyclo[17.3.1.112,16.03,9]tetracosa-1(22),12,14,16(24),19(23),20-hexaen-2-one] | +++ (+++ is >60%) |
| Cc1cccc(C)c1-c1cc2nc(n1)NS(=O)(=O)c1cccc(c1)C(=O)N1[C@@H](c3ncc(OC(C)C)cn3)CCC[C@@H](CC(C)C)[C@H]1CO2 (single isomer, unassigned) [Compound 398, 14-(2,6-Dimethylphenyl)-8-isobutyl-4-(5-isopropoxypyrimidin-2-yl)-18,18-dioxo-11-oxa-18λ^6-thia-3,15,17,24-tetrazatetracyclo[17.3.1.112,16.03,9]tetracosa-1(22),12,14,16(24),19(23),20-hexaen-2-one] | +++ (+++ is >60%) |
| Cc1cccc(C)c1-c1cc2nc(n1)NS(=O)(=O)c1cccc(c1)C(=O)N1[C@@H](c3ncc(OC(C)C)cn3)CCC[C@@H](CC(C)C)[C@H]1CO2 (single isomer, unassigned) [Compound 399, 14-(2,6-dimethylphenyl)-8-isobutyl-4-(5-isopropoxypyrimidin-2-yl)-18,18-dioxo-11-oxa-18λ^6-thia-3,15,17,24-tetrazatetracyclo[17.3.1.112,16.03,9]tetracosa-1(22),12,14,16(24),19(23),20-hexaen-2-one] | + (+ is <30+) |
| Cc1cccc(C)c1-c1cc2nc(n1)NS(=O)(=O)c1cccc(c1)C(=O)N1[C@@H](c3cncc(N(C)C4CCC4)n3)CCC[C@@H](CC(C)C)[C@H]1CO2 (single isomer, unassigned) [Compound 400, 4-[6-[Cyclobutyl(methyl)amino]pyrazin-2-yl]-14-(2,6-dimethylphenyl)-8-isobutyl-18,18-dioxo-11-oxa-18λ^6-thia-3,15,17,24-tetrazatetracyclo[17.3.1.112,16.03,9]tetracosa-1(22),12,14,16(24),19(23),20-hexaen-2-one] | +++ (+++ is >60%) |

Other lines, results leading:

| HBE2 Activity at 3 μM (%) | Structure (SMILES) |
| --- | --- |
| ++ (++ is 30-60%) | Cc1cccc(C)c1-c1cc2nc(n1)NS(=O)(=O)c1cccc(c1)C(=O)N1[C@@H](c3cncc(N(C)C4CCC4)n3)CCC[C@@H](CC(C)C)[C@H]1CO2 (single isomer, unassigned) [Compound 401, 4-[6-[cyclobutyl(methyl)amino]pyrazin-2-yl]-14-(2,6-dimethylphenyl)-8-isobutyl-18,18-dioxo-11-oxa-18λ^6-thia-3,15,17,24-tetrazatetracyclo[17.3.1.112,16.03,9]tetracosa-1(22),12,14,16(24),19(23),20-hexaen-2-one] |
| +++ (+++ is >60%) | Cc1cccc(C)c1-c1cc2nc(n1)NS(=O)(=O)c1cccc(c1)C(=O)N1[C@@H](c3cncc(N(C)C4CCC4)n3)CCC[C@@H](CC(C)C)[C@H]1CO2 (single isomer, unassigned) [Compound 402, 4-[6-[Cyclobutyl(methyl)amino]pyrazin-2-yl]-14-(2,6-dimethylphenyl)-8-isobutyl-18,18-dioxo-11-oxa-18λ^6-thia-3,15,17,24-tetrazatetracyclo[17.3.1.112,16.03,9]tetracosa-1(22),12,14,16(24),19(23),20-hexaen-2-one] |
| ++ (++ is 30-60%) | Cc1cccc(C)c1-c1cc2nc(n1)NS(=O)(=O)c1cccc(c1)C(=O)N1[C@@H](c3ncc(OC(C)C)cn3)CCC[C@@H](O2)[C@H]1CC(C)C (single isomer, unassigned) [Compound 404, 12-(2,6-dimethylphenyl)-21-isobutyl-20-(5-isopropoxypyrimidin-2-yl)-8,8-dioxo-15-oxa-8λ^6-thia-1,9,11,22-tetrazatetracyclo[14.4.1.13,7.110,14]tricosa-3,5,7(23),10(22),11,13-hexaen-2-one] |
| +++ (+++ is >60%) | Cc1cccc(C)c1-c1cc2nc(n1)NS(=O)(=O)c1cccc(c1)C(=O)N1[C@@H](c3ncc(OC(C)C)cn3)CCC[C@@H](O2)[C@H]1CC(C)C (single isomer, unassigned) [Compound 405, 12-(2,6-Dimethylphenyl)-21-isobutyl-20-(5-isopropoxypyrimidin-2-yl)-8,8-dioxo-15-oxa-8λ^6-thia-1,9,11,22-tetrazatetracyclo[14.4.1.13,7.110,14]tricosa-3,5,7(23),10(22),11,13-hexaen-2-one] |
| +++ (+++ is >60%) | Cc1cccc(C)c1-c1cc2nc(n1)NS(=O)(=O)c1cccc(c1)C(=O)N1[C@@H](c3ncc(OC(C)C)cn3)CCC[C@@H](O2)[C@H]1CC(C)C (single isomer, unassigned) [Compound 406, 12-(2,6-Dimethylphenyl)-21-isobutyl-20-(5-isopropoxypyrimidin-2-yl)-8,8-dioxo-15-oxa-8λ^6-thia-1,9,11,22-tetrazatetracyclo[14.4.1.13,7.110,14]tricosa-3,5,7(23),10(22),11,13-hexaen-2-one] |
